Calls of active or inactive are those of the source.
Legend:
[1] = molecular target: Glutathione S-transferase omega-1 (Homo sapiens, UniProt P78417); experiment: IC50 of human GSTO1 blockade by gel ABPP – biochemical, SE-Rh probe, in-gel fluorescence, powder samples, set 2, late-stage follow-up (AID 463142); type: functional
NADPH oxidase 1 [2] = molecular target: T1, NADPH oxidase 1 (Homo sapiens, UniProt Q9Y5S8); type: functional, cell-based;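 note: Cell-based assay with luminescence read-out, IC50 derived from inhibitor dose-response curves; intracellular ROS from endogenous NOX1 in intact HT29 colon cancer cells; potency of inhibitors that lower the ROS luminescence signal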
T1 sequence (Q9Y5S8 whole entry): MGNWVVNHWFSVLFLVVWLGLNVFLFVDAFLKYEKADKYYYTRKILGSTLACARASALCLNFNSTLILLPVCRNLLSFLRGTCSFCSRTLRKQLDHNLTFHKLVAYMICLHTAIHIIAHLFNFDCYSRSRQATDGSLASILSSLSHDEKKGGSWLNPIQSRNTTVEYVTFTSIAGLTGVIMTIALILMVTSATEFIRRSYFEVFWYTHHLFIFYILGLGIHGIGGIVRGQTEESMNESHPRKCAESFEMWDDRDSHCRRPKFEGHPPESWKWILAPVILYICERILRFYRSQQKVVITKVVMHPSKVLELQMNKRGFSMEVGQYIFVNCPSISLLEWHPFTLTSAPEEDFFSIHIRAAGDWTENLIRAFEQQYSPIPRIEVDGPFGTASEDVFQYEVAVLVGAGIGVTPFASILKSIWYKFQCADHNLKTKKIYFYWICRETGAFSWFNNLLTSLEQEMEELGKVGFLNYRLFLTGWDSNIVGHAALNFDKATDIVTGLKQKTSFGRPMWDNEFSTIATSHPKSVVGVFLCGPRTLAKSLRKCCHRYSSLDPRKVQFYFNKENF

NADPH oxidase 1 [3] = molecular target: T1, NADPH oxidase 1; experiment: HEK293 ROS counter-screen potency – cell-based, IC50, set 2, counter-screen for NOX1 inhibitor project, late-stage follow-up (AID 435002); type: functional
NADPH oxidase 3 = NADPH oxidase 3 (Homo sapiens, UniProt Q9HBY0); experiment: PubChem AID 435013
NADPH oxidase 2 = NADPH oxidase 2 (Homo sapiens, UniProt P04839); experiment: PubChem AID 435013
[4] = molecular target: T2, RNA-binding protein pos-1 (Caenorhabditis elegans, UniProt G5EF15); experiment: disruptors of C. elegans POS-1 RNA interaction – biochemical, fluorescence polarization, dose response (AID 1964);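 note: purified POS-1 fused to maltose binding protein made in E. coli; potency of compounds blocking POS-1 binding to fluorescent RNA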
T2 sequence (G5EF15 whole entry): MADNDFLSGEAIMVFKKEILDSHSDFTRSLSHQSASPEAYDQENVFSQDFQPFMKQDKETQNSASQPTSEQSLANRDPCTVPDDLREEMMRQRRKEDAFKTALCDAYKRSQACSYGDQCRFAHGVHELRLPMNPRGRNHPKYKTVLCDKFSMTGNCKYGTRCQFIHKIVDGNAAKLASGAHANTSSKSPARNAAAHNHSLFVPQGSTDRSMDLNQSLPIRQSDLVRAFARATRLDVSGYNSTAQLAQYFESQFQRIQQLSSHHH

[5] = molecular target: T3, Zinc finger protein mex-5 (Caenorhabditis elegans, UniProt Q9XUB2); experiment: potency of MEX-5 RNA-binding blockers – biochemical, C. elegans, fluorescence polarization, dose response (AID 1960)
T3 sequence (Q9XUB2 whole entry): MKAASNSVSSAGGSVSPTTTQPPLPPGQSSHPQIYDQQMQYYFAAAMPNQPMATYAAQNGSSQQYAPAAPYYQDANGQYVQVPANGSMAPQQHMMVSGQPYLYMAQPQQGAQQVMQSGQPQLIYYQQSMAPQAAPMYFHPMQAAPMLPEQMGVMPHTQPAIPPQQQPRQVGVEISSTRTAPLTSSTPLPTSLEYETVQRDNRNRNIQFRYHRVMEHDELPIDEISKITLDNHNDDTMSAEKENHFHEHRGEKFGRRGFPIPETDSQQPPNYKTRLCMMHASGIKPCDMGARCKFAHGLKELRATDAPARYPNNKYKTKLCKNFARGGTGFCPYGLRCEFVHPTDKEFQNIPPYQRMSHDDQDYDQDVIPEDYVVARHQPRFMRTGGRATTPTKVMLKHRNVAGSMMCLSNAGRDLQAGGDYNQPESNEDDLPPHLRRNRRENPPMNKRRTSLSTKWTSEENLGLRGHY

Troponin, cardiac muscle = Troponin, cardiac muscle (Homo sapiens, UniProt P19429+P45379+P63316); experiment: compounds desensitizing RTF to calcium – biochemical, fluorescence, cardiac regulated thin filaments, triplicate IC50, dose response (AID 504742); type: protein-complex assay
[6] = molecular target: Tyrosyl-DNA phosphodiesterase 2 (Homo sapiens, UniProt O95551); experiment: potency against TDP2 phosphodiesterase activity – biochemical, epi absorbance, IC50, dose response (AID 743297)
[7] = molecular target: Disintegrin and metalloproteinase domain-containing protein 17 (Homo sapiens, UniProt P78536); experiment: exosite inhibitors of ADAM17, dose response, biochemical (AID 743260)
[8] = molecular target: 1-phosphatidylinositol 4,5-bisphosphate phosphodiesterase gamma-1 (Homo sapiens, UniProt P19174); experiment: Counterscreen for inhibitors of phospholipase C isozymes (PLC-B3): Fluorescence-based biochemical high throughput dose response assay to identify inhibitors of phospholipase C isozymes (PLC-gamma1).
[9] = molecular target: 1-phosphatidylinositol 4,5-bisphosphate phosphodiesterase beta-3 (Homo sapiens, UniProt Q01970); experiment: Fluorescence-based biochemical high throughput dose response assay to identify inhibitors of phospholipase C isozymes (PLC-B3).
[10] = inhibition of ADAM10 peptide cleavage – biochemical, FRET peptide substrate, recombinant human ADAM10, selectivity assay for ADAM17 exosite inhibitor project, dose response (AID 743259);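 note: ADAM10 enzyme cleaving a FRET peptide substrate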
BJ [11] = experiment: BJ-TERT fibroblast viability loss – cell-based, RAS-independent, luminescence, dose response (AID 1933); type: functional; conditions: Homo sapiens
[12] = molecular target: T4, Heat shock factor protein 1 (Mus musculus, UniProt P38532); experiment: decrease of HSF1-responsive luciferase luminescence – cell-based, NIH3T3, dose retest, confirmation (AID 2382); type: functional;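 note: NIH3T3 fibroblasts with HSF1-driven luciferase reporter stressed by proteasome inhibitor MG132; luminescence from HSF1-driven luciferase expression after 8 hours of MG132 stress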
T4 sequence (P38532 whole entry): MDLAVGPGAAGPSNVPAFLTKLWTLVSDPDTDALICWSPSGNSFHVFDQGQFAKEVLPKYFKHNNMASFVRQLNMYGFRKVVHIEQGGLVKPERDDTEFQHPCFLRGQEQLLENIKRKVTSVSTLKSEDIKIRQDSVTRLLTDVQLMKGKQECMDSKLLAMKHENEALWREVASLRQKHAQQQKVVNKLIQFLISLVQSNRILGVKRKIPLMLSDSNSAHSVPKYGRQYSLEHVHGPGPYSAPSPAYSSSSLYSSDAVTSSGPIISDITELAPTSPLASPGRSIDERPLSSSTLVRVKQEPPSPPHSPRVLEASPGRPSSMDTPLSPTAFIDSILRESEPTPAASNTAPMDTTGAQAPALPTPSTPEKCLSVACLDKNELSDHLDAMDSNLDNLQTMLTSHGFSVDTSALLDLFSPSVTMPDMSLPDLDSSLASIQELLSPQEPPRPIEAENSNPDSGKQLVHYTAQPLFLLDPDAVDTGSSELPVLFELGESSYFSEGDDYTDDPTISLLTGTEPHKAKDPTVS

BJ [13] = experiment: cells; type: functional, cell-based; conditions: Homo sapiens
BJ [14] = experiment: BJ-TERT-LT-ST fibroblast viability loss – cell-based, RAS-independent, luminescence, dose response (AID 1935); type: functional; conditions: Homo sapiens;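 note: BJ fibroblasts immortalized with TERT plus LT and ST oncogenes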
[15] = DRD fibroblast viability loss – cell-based, non-viral oncogenic, luminescence, dose response (AID 1934); type: functional; conditions: Homo sapiens
Bcl-2-related protein A1 = molecular target: T5, Bcl-2-related protein A1 (Mus musculus, UniProt Q07440); type: functional;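 note: confirmatory dose–response counterscreen on Bfl-1, used to check hits from a UBC13 polyubiquitin inhibitor campaign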
T5 sequence (Q07440 whole entry): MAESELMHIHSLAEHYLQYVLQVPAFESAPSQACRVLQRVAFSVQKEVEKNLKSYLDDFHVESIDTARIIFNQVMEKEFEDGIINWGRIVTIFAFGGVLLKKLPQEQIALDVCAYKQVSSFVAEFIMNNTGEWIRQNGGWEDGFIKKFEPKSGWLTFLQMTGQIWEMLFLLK

[16] = molecular target: T6, Ubiquitin-conjugating enzyme E2 N (Homo sapiens, UniProt P61088); type: functional
T6 sequence (P61088 whole entry): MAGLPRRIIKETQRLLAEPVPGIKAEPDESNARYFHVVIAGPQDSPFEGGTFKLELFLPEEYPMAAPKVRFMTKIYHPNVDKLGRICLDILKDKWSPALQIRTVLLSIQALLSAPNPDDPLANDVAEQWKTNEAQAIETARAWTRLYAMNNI

[17] = molecular target: T6, Ubiquitin-conjugating enzyme E2 N; type: functional; remark: listed apart in the source
[18] = molecular target: T7, Type-1 angiotensin II receptor (Homo sapiens, UniProt P30556); experiment: agonist activity at AGTR1 – cell-based, uHTS hits, selectivity assay for APJ receptor agonist project, dose response (AID 488865); type: functional;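 note: beta-arrestin recruitment to AT1 measured by enzyme fragment complementation luminescence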
T7 sequence (P30556 whole entry): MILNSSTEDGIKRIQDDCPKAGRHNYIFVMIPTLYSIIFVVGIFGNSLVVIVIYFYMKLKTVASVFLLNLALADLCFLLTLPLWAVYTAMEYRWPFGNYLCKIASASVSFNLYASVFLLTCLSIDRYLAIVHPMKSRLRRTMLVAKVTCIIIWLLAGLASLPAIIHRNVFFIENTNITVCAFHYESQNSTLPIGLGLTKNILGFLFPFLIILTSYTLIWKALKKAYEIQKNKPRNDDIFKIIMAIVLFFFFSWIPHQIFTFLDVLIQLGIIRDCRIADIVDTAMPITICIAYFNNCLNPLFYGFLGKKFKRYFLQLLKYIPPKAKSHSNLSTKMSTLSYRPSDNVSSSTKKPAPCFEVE

BJ [19] = experiment: growth inhibition of engineered Ras-driven BJ cells – cell-based, alamar blue fluorescence, cherrypicked samples, dose response (AID 2631); type: functional; conditions: Homo sapiens;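 note: confirmatory dose-response assay in RAS-dependent BJ fibroblasts engineered with TERT, LT and ST, with cytotoxicity read by fluorescence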
INS1 = experiment: INS-1E survival protection against cytokine death – cell-based, luminescence, retest, dose response (AID 449756); type: functional; conditions: Rattus norvegicus;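 note: cell death triggered by IL-1 beta plus TNF-alpha plus IFN-gamma mixture; protective hits raise ATP signal compared with cytokine alone wells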

Chain of Tyrosyl-DNA phosphodiesterase 2 (O95551 whole entry, the tested form may be a part): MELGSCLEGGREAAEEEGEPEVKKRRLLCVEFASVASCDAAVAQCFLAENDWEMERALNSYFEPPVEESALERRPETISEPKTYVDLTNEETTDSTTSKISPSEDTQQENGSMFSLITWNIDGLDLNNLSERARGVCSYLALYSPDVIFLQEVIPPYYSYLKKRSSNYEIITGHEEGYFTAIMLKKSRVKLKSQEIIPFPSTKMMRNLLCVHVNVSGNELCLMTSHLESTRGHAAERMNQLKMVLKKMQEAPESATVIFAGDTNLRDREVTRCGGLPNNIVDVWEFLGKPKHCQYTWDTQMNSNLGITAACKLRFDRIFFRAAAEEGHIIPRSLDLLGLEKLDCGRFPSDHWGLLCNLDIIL
Chain of NADPH oxidase 3 (Q9HBY0 whole entry): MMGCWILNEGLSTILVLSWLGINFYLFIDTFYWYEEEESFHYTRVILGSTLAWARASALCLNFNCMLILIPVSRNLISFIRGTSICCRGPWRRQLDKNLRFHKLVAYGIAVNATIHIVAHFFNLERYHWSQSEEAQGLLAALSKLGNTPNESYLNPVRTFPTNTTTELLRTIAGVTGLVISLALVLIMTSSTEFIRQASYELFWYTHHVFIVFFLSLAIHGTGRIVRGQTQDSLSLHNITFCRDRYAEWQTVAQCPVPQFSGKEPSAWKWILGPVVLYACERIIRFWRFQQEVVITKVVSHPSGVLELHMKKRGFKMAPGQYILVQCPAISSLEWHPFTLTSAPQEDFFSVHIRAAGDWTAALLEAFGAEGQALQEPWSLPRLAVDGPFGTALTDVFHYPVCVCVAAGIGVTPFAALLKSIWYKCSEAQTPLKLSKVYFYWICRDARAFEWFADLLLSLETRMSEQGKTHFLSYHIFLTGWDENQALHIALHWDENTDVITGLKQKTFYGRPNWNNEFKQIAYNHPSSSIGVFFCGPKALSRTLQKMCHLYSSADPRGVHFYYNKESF
Chain of 1-phosphatidylinositol 4,5-bisphosphate phosphodiesterase beta-3 (Q01970 whole entry): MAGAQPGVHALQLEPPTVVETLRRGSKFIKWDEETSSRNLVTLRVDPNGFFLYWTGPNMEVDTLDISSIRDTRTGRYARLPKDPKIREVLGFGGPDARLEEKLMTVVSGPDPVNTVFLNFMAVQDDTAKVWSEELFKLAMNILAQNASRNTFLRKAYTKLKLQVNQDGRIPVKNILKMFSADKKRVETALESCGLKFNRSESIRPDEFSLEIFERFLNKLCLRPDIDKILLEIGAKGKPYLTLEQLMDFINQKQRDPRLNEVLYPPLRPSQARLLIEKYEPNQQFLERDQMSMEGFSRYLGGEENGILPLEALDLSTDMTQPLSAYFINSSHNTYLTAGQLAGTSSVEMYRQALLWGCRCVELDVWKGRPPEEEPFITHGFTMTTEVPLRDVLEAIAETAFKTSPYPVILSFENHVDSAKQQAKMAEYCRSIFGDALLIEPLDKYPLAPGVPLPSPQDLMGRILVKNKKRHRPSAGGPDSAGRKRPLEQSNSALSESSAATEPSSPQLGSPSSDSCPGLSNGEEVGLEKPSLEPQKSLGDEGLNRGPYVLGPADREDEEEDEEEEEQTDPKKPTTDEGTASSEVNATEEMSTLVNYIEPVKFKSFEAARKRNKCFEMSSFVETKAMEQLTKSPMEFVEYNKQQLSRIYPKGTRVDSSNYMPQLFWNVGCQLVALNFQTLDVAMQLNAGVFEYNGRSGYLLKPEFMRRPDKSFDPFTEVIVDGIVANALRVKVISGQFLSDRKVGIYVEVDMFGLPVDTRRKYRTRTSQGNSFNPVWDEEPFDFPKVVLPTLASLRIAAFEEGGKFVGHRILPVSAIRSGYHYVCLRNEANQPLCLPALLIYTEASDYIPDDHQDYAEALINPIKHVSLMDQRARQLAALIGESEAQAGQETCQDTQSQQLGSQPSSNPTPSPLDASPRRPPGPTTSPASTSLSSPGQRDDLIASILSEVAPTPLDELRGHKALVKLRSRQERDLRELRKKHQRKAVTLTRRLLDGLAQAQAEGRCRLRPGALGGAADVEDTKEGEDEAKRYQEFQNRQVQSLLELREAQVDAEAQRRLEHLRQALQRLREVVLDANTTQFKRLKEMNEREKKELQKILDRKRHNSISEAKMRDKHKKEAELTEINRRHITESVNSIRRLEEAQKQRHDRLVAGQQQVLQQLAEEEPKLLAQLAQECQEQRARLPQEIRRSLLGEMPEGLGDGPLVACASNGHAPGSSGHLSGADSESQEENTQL
Chain of NADPH oxidase 2 (P04839 whole entry, the tested form may be a part): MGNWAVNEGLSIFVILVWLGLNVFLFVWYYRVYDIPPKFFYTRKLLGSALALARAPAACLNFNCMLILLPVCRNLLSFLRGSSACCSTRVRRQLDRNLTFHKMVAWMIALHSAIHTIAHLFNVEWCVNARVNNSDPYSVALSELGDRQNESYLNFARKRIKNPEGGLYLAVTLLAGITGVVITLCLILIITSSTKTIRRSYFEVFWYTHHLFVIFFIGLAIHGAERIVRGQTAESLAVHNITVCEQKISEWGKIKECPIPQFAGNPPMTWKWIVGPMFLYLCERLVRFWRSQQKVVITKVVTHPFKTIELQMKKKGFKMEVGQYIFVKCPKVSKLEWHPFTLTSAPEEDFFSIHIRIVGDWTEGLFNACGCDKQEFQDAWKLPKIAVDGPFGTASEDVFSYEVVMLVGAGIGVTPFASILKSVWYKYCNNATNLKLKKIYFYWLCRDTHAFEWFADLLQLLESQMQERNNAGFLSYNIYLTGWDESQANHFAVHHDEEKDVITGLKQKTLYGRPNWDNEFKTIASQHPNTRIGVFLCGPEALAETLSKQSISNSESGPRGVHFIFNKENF
Chain of 1-phosphatidylinositol 4,5-bisphosphate phosphodiesterase gamma-1 (P19174 whole entry): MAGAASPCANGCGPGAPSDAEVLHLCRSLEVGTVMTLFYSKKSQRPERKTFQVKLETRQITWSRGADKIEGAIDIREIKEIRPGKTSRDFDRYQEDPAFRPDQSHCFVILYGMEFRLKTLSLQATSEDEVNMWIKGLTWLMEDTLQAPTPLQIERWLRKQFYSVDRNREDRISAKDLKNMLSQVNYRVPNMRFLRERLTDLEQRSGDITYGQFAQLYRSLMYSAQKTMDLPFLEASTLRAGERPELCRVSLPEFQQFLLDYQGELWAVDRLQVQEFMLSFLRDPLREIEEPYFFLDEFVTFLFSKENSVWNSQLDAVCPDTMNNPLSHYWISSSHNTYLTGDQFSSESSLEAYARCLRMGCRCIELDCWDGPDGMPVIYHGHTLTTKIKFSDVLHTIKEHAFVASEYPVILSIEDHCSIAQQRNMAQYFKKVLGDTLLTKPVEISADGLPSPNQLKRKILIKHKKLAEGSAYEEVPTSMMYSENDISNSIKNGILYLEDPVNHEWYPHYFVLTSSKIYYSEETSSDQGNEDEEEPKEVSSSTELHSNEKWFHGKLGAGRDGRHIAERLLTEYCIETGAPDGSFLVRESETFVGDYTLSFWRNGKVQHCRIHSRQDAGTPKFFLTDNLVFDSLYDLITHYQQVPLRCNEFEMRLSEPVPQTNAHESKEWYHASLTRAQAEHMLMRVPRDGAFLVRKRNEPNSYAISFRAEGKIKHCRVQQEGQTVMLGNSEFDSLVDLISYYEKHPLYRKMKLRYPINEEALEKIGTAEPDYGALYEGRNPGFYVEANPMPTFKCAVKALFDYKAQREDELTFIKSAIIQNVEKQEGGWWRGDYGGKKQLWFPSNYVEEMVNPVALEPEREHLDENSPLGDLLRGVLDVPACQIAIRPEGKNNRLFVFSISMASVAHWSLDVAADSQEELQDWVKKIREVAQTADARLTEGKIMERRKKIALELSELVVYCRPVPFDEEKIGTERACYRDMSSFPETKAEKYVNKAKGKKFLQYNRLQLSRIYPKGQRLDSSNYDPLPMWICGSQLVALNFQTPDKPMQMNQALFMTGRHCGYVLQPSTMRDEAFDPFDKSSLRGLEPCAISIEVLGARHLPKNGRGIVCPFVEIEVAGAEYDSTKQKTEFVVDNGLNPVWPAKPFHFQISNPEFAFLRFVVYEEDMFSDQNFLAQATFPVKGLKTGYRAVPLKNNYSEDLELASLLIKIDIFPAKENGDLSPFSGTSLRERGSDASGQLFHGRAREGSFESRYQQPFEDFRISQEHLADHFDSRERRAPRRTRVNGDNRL
Chain of Glutathione S-transferase omega-1 (P78417 whole entry): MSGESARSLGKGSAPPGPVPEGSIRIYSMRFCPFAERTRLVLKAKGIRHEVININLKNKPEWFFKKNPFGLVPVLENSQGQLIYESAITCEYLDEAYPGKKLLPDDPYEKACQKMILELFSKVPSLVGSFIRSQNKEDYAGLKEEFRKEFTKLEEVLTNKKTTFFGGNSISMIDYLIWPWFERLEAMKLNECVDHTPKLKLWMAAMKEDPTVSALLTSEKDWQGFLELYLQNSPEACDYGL

O=C(CCl)N(CCCCCNC(=O)C(F)(F)F)c1ccc([N+](=O)[O-])cc1
IC50 [1]: 0.034 µM (active)

Oc1c(Br)cc(/C=N/Nc2c(Cl)cncc2Cl)cc1Br
IC50 (NADPH oxidase 1 [2]): 0.43 µM (active) | IC50 (NADPH oxidase 1 [3]): 10 µM (active) | IC50 (NADPH oxidase 3): > 50 µM (inactive) | IC50 (NADPH oxidase 2): > 50 µM (inactive)

O=C(O)c1cc(O)c2c(c1)[C@H]([C@H]1c3cc(C(=O)O)cc(O)c3C(=O)c3c(O[C@@H]4O[C@H](CO)[C@@H](O)[C@H](O)[C@H]4O)cccc31)c1cccc(OC3O[C@H](CO)[C@@H](O)[C@H](O)[C@H]3O)c1C2=O (some centres undefined)
EC50 [4]: > 300 µM (not active) | EC50 [5]: 7.25 µM (active) | IC50 (Troponin, cardiac muscle): 2.72 µM (active) | IC50 [6]: > 128 µM (inactive) | IC50 [7]: 30.4 µM (inactive) | IC50 [8]: 18.8 µM (inactive) | IC50 [9]: 109 µM (inactive) | IC50 [10]: > 23.2 µM (inactive)

COc1ccc(OC)c2sc(N(CCCN(C)C)C(=O)c3ccc(S(=O)(=O)N4CCc5ccccc5C4)cc3)nc12
EC50 (BJ [11]): 0.357 µM (inconclusive) | EC50 [12]: 5.01 µM (active) | EC50 (BJ [13]): 2.43 µM (active) | EC50 (BJ [14]): 0.432 µM (inconclusive) | EC50 [15]: 1.27 µM (inconclusive) | IC50 (Bcl-2-related protein A1): 8.51 µM (active) | IC50 [16]: 2.47 µM (active) | IC50 [17]: 1.27 µM (active) | EC50 [18]: > 100 µM (inactive) | EC50 (BJ [19]): 0.289 µM (active) | AC50 (INS1): 1.75 µM (active)

— ChEMBL document CHEMBL1201862, “PubChem BioAssay data set” (2004)
